According to patent publication US8871751B2, “Compositions and methods relating to nuclear hormone and steroid hormone receptors including inhibitors of estrogen receptor alpha-mediated gene expression and inhibition of breast cancer” (The Board of Trustees of the University of Illinois, priority 2008, dated 2014):

Columns and labels:
GR = target: T1, GR (Rattus norvegicus, UniProt P06536); assay: GR transactivation, MMTV-luciferase reporter in T47D cells; format: cell-based, human
T1 construct: expressed in transfected cells; host or cells: T47D/A1-2
T1 sequence (P06536 1-795): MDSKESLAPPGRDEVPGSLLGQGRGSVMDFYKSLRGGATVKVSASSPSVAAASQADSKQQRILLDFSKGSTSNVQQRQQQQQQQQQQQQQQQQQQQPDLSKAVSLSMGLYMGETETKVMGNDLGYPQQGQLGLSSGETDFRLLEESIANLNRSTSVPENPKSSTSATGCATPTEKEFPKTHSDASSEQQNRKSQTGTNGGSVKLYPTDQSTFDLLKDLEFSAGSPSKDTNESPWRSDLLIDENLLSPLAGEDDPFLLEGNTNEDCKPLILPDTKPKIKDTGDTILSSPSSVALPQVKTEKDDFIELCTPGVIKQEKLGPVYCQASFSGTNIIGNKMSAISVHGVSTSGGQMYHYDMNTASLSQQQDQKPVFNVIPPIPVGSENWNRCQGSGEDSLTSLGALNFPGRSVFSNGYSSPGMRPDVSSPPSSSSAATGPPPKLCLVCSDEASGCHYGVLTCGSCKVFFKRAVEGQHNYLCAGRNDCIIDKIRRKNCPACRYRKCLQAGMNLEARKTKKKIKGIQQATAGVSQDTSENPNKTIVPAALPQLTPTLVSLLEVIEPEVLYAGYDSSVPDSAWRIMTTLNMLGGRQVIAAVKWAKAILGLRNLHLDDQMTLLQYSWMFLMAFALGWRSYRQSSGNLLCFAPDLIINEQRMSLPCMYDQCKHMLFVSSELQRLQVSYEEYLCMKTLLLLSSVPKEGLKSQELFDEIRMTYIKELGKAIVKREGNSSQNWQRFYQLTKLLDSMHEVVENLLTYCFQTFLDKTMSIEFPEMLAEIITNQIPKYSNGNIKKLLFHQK
Protocol: The T47D-KBluc cells stably express an (ERE)3-luciferase reporter gene (38). Cells were maintained in phenol red-free RPMI 1640 with 2 mM L-glutamine, 1.5 g/l sodium bicarbonate, 4.5 g/l glucose, 10 mM Hepes, pH 7.5, 1 mM sodium pyruvate, 10% FBS (Atlanta Biological, Atlanta, Ga.) and antibiotics. Four days before E2 induction, the cells were switched to the above medium, with 10% 2× charcoal-dextran-treated calf serum instead of FBS. 200,000 cells/well were transferred to each well of a 24-well plate. After 24 h the indicated concentrations of the test compounds were added in DMSO and E2 was added to 20 pM. After 24 h cells were washed once in PBS, and 150 μl 1× Passive Lysis Buffer (Promega, Madison Wis.) was used to lyse the cells. Luciferase activity was determined using firefly luciferase reagents from Promega (Madison, Wis.). T47D cells stably transfected to express GR and a mouse mammary tumor virus luciferase reporter that responds to liganded GR and PR were maintained and assayed in medium containing 5 nM progesterone for PR assays, or 2.5 nM dexamethsaone for GR assays, essentially as described (39).
Reporter Gene Assays. TPSF was identified by reporter gene assays comparing the ability of ˜200 compounds structurally related to TPBM (see reference 19) to inhibit transcription of a stably transfected (ERE)3-luciferase reporter gene in T47D-KBluc breast cancer cells (20). AR was assayed in stably transfected HeLa cells and GR was assayed in stably transfected T47D cells maintained as described above. Four days before each experiment the cells were switched to medium containing CD-treated serum as described above. The HeLaAR cells were plated at 100,000 cells/well and the T47D/A1-2 and T47D-KBluc cells were plated at 200,000 cells/well in 1 ml of their respective media in 24-well plates. After 24 hours the indicated concentrations of E2, dihydrotestosterone (DHT) or dexamethasone (Dex) and DMSO vehicle, with or without TPSF, were added to each well. After 24 hours, the cells were washed once in phosphate buffered saline and lysed using 100 μl of 1× Passive Lysis Buffer (Promega, Madison Wis.). Luciferase activity was determined using BrightGlo firefly luciferase reagent from Promega (Madison, Wis.).

ERα [1] = target: T2, ERα (Homo sapiens, UniProt P03372); assay: Endogenous PI-9 mRNA induction in MCF-7 cells (qRT-PCR); format: cell-based; set-up: endogenous in cells; details: 10 nM E2, read-out: IC50 for inhibition of E2-ERα induction of endogenous PI-9 mRNA (Endog. PI-9)
T2 sequence (P03372 1-595): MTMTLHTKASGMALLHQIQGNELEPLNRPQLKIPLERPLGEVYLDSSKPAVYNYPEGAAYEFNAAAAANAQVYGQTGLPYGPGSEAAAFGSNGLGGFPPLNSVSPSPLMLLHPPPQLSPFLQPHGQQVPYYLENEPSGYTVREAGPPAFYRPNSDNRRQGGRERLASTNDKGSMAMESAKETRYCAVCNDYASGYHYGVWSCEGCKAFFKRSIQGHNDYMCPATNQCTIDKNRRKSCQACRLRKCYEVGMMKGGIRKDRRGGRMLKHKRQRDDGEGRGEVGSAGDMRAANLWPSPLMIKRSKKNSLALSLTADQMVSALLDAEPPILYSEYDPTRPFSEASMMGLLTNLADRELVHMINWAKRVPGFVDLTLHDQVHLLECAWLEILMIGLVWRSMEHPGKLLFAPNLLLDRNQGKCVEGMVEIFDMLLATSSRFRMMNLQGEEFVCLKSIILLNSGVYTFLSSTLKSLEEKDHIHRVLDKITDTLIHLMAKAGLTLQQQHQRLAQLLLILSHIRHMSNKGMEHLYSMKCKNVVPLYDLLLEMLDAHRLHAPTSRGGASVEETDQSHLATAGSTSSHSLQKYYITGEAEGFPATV
Protocol: Endogenous Gene Expression. MCF-7 cells or MCF7ERαHA cells were maintained for 4 days in medium containing 5% CD calf serum (MCF-7 cells) or 10% 6×CD-FBS (MCF7ERαHA cells). In assays of TPSF inhibition of PI-9 induction, cells were plated, incubated for 24 hours in the indicated concentrations of TPSF and then maintained 4 hours with and without E2, with and without TPSF. To induce ERα, MCF7ERαHA cells were also maintained in 0.5 μg/ml Dox for 24 hours prior to addition of E2 or OHT with or without TPSF. For induction of cyclin D1, 24 hours after plating the cells, E2 with and without TPSF was added, the cells were maintained for 24 hours, RNA was extracted and mRNA levels were determined by quantitative RT-PCR as described (19, 26). Actin mRNA levels were used as the qRT-PCR internal standard. The primers and sequences used in qRT-PCR were as follows.

ERα [2] = target: T2, ERα; assay: (ERE)3-luciferase reporter gene assay in T47D-KBluc cells; format: cell-based; set-up: Using a stably transfected breast cancer cell line that expresses endogenous ERα; endogenous in cells; host or cells: T47D-KBluc

inhibition at 30 µM (GR; T47D, 30 μM, 2.5 nM dexamethasone) [%] | effect on GR transactivation (GR; up to 20 μM, 2.5 nM dexamethasone) | IC50 (GR; stably transfected T47D cells, 100 nM Dex, 24 h, read-out: IC50 for inhibition of GR gene expression (MMTV-Luc)) [nM] | IC50 (ERα [1]) [nM] | IC50 (ERα [2]; 0.2 nM E2, 24 h, read-out: IC50 for inhibition of E2-ERα-mediated (ERE)3-luciferase expression) [nM] | IC50 (ERα [2]; 100 nM E2, 24 h, read-out: IC50 for inhibition of E2-ERα-mediated (ERE)3-luciferase expression (ERE-Luc)) [nM] | SMILES
~35 | did not inhibit | – | – | – | – | Cn1c(=O)c2nc(CSCc3ccccc3)[nH]c2n(C)c1=O [Compound 95910, 8-Benzylsulfanylmethyl-1,3-dimethyl-3,7-dihydro-purine-2,6-dione]
– | – | 10000 | 200 | 400 | 700 | Cn1c(=S)c2[nH]c(SCCCC(=O)c3ccc(F)cc3)nc2n(C)c1=O [TPSF, Butyrophenone, p-fluoro-4-(1,2,3,6,-tetrahydro-1,3-dimethyl-2-oxo-6-thionopurin-8-ylthio)]
